Results on twelve compounds are retold here after ChEMBL document CHEMBL1201862, “PubChem BioAssay data set” (2004).

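Cells were grown in 96-well plates and exposed to each compound for 48 hours at five concentrations; endpoints were interpolated linearly between bracketing concentrations, or set to the highest concentration if not reached. GI50 is the concentration that inhibits growth by half.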 The source made the active and inactive calls. Cut-off read from the data, not from the text of the source: active = GI50 up to about 1.1 µM and inactive = higher.

As usually defined, the GI50 is the concentration at which growth is held to half of that of the control.

Holding throughout (assay): DTP human tumour cell line panel, 48 h
Test [1] deals with OVCAR-4.
Test [2] concerns Hs-578T.
The subject of test [3] is SK-MEL-2.
The test system of test [4] is MDA-MB-435.
Test [5] concerns UACC-62.
The test system of test [6] is SN12C.
Test [7] has as its system MCF7.
For test [8], the system named is HCT-15.
The subject of test [9] is NCI-H226.
In test [10] the test system is MOLT-4.
Test [11] concerns SW-620.
Test [12] concerns UACC-257.
Test [13] concerns SK-MEL-28.
The subject of test [14] is A549.
Test [15] relates to NCI-H23.
The subject of test [16] is MDA-N.
Test [17] deals with MDA-MB-231.
The test system of test [18] is OVCAR-8.
Test [19] concerns CAKI-1.
Test [20] deals with RXF 393.

In the case of `COc1ccc(-n2sc3ncc([N+](=O)[O-])cc3c2=O)cc1`, the GI50 in test [1] is > 100 µM (inactive); in test [2] it was 32.1 µM (inactive); in test [3] it was > 100 µM (inactive); in test [4], > 100 µM (inactive); in [5], > 100 µM (inactive); in test [6] it was > 100 µM (inactive). Further, the GI50 is > 100 µM (inactive) in test [7]; > 100 µM in test [8]; > 100 µM (inactive) in test [9]; > 100 µM (inactive) in test [10]; > 100 µM (inactive) in [11]; > 100 µM (inactive) in test [12]. In addition, the GI50 in test [13], in test [14], in test [15], in [16], in test [17] and in test [18] was > 100 µM (inactive) in each case.

Consider `Cc1cc(C)nc(NS(=O)(=O)c2ccc(Nc3c4ccccc4nc4c(C(=O)NCCCN(CCO)CCO)cccc34)cc2)n1`, for which the GI50 is 16.9 µM (inactive) in test [1]; 6.67 µM (inactive) in test [2]; 14.2 µM (inactive) in [3]; 16 µM (inactive) in [4]; 14 µM (inactive) in [5]; 8.22 µM (inactive) in test [6]. Also, the GI50 in test [7] was 5.89 µM (inactive); in test [8] it was 49.2 µM; in [10], 3.33 µM (inactive); in test [11], 8.36 µM (inactive); in test [12] it was > 100 µM (inactive); in [19], 56.2 µM (inactive). Moreover, the GI50 in test [13] is 14.2 µM (inactive); in test [14], 26.4 µM (inactive); in test [15] it was 29.4 µM (inactive); in test [16] it was 17.7 µM (inactive); in test [17], 27.4 µM (inactive); in test [18], 17.3 µM (inactive).

Regarding `CCOC(=O)CCC(NC(=O)c1ccc(NCc2ccc3nc(-c4ccccc4)c(Cl)nc3c2)c2ccccc12)C(=O)OCC` (stereo unspecified), the GI50 in [1] is > 100 µM (inactive); in test [3] it was 72.9 µM (inactive); in test [4], > 100 µM (inactive); in [5] it was > 100 µM (inactive); in test [6], > 100 µM (inactive); in test [7] it was 43.5 µM (inactive). In addition, the GI50 in test [8] was > 100 µM; in test [9], > 100 µM (inactive); in [20], > 100 µM (inactive); in test [10], 0.977 µM (active); in [11], > 100 µM (inactive); in test [12], 16.2 µM (inactive). Also, the GI50 is > 100 µM (inactive) in test [19]; > 100 µM (inactive) in [13]; > 100 µM (inactive) in test [14]; 58.1 µM (inactive) in test [15]; > 100 µM (inactive) in test [16]; > 100 µM (inactive) in test [17]. In addition, the GI50 in test [18] was > 100 µM (inactive).

As to `O=C(CCNC12CC3CC(CC(C3)C1)C2)c1ccccc1`, the GI50 in [1] is 36.8 µM (inactive); in test [3] it was 15.9 µM (inactive); in test [4], 26.5 µM (inactive); in test [5] it was 19.6 µM (inactive); in test [6] it was 16.6 µM (inactive); in test [7], 19.3 µM (inactive). Besides, the GI50 in [8] is 16.5 µM; in test [9] it was 33.1 µM (inactive); in test [20], 20.1 µM (inactive); in test [10], 13.1 µM (inactive); in test [11] it was 17.3 µM (inactive); in test [12], 15.3 µM (inactive). Moreover, the GI50 is > 10 µM (inactive) in [19]; 22.3 µM (inactive) in test [13]; 30.1 µM (inactive) in [14]; 20.1 µM (inactive) in test [15]; 16 µM (inactive) in [16]; 13.4 µM (inactive) in test [17]. In addition, in test [18], the GI50 was 21.6 µM (inactive).

As to `OCC1CCCCCCCCCCC12SCCCS2` (stereo unspecified), the GI50 in test [1], in test [2], in test [3], in [4], in test [5] and in test [7] was > 100 µM (inactive) throughout. The GI50 was > 100 µM in [8]; > 100 µM (inactive) in test [9]; > 100 µM (inactive) in [10]; > 100 µM (inactive) in test [11]; > 100 µM (inactive) in test [19]; > 100 µM (inactive) in test [13]. Besides, the GI50 in test [14], in test [15] and in test [16] was > 100 µM (inactive) throughout.

With `N#Cc1ccc(-c2nc3cc(Cl)ccc3[nH]2)cc1`, the GI50 is > 100 µM (inactive) in test [2]; > 100 µM (inactive) in test [3]; 51.1 µM (inactive) in test [6]; 63 µM (inactive) in test [7]; 39.9 µM in [8]; 99.5 µM (inactive) in [9]. In addition, the GI50 in test [20] was > 100 µM (inactive); in test [10], 23.1 µM (inactive); in test [11] it was > 100 µM (inactive); in test [19], 54.2 µM (inactive); in test [14], 38.3 µM (inactive); in [16], 49.1 µM (inactive). The GI50 was > 100 µM (inactive) in test [17] and 42.8 µM (inactive) in test [18].

Consider `CCOC(=O)c1c(N)sc2c1C(C(=O)OCC)CCCC2` (stereo unspecified), for which the GI50 was 43.9 µM (inactive) in test [2]; 94.4 µM (inactive) in test [3]; 78.3 µM (inactive) in test [5]; 91 µM (inactive) in test [6]; > 100 µM (inactive) in [7]; 67.3 µM in test [8]. Further, the GI50 is > 100 µM (inactive) in [9]; 17.3 µM (inactive) in [20]; 29.6 µM (inactive) in [10]; > 100 µM (inactive) in test [11]; 57.9 µM (inactive) in test [12]; > 100 µM (inactive) in [13]. For the same compound, the GI50 is 88.9 µM (inactive) in [14]; 62.1 µM (inactive) in [15]; 69.5 µM (inactive) in test [16]; 46.8 µM (inactive) in [17]; 89.3 µM (inactive) in test [18].

As to `CC1(C)CC(=O)c2c(nc(SSc3nc4c(c(-c5ccc(Br)cc5)c3C#N)C(=O)CC(C)(C)C4)c(C#N)c2-c2ccc(Br)cc2)C1`, the GI50 is > 10 µM (inactive) in test [1]; > 10 µM (inactive) in [2]; > 10 µM (inactive) in test [3]; > 10 µM (inactive) in test [6]; > 10 µM (inactive) in test [7]; > 10 µM in [8]. In addition, the GI50 in test [9], in test [20], in [10], in test [11], in [12] and in test [19] was > 10 µM (inactive) in each case. For the same compound, the GI50 in test [13], in test [14], in [15], in [16] and in test [18] was > 10 µM (inactive) each time.

`[O-][S+](Nc1ccccc1)c1ccc(Cl)c(Cl)c1` (stereo unspecified): the GI50 in test [1] is 47.9 µM (inactive); in [2], 24.5 µM (inactive); in [3], 33.3 µM (inactive); in test [4], 24.2 µM (inactive); in [5], 25.8 µM (inactive); in test [6], > 100 µM (inactive). In addition, the GI50 in test [7] is 33.7 µM (inactive); in [8], 57.3 µM; in test [9], 51.1 µM (inactive); in test [10] it was 23.7 µM (inactive); in test [11], > 100 µM (inactive); in [12], 62.2 µM (inactive). For the same compound, the GI50 is > 100 µM (inactive) in test [13]; 28.6 µM (inactive) in test [14]; 54.5 µM (inactive) in [15]; > 100 µM (inactive) in [16]; 40.9 µM (inactive) in test [17]; 66.4 µM (inactive) in test [18].

For `NC(N)=NCc1ccc2c(c1)OCO2`, the GI50 is > 100 µM (inactive) in test [1]; > 100 µM (inactive) in test [2]; > 100 µM (inactive) in test [3]; 73.1 µM (inactive) in test [4]; > 100 µM (inactive) in test [5]; > 100 µM in [8]. Further, the GI50 in test [20] is 55.3 µM (inactive); in [10], > 100 µM (inactive); in [11] it was > 100 µM (inactive); in test [19], 44.9 µM (inactive); in test [13], 67.3 µM (inactive); in [14], > 100 µM (inactive). Further, the GI50 in [15] is 61.1 µM (inactive); in [16], > 100 µM (inactive); in [17], 95.3 µM (inactive).

As to `COC(=O)[C@H](CCSC)NC(=O)c1ccc(CNC(=O)/C(C)=C/c2ccccc2)cc1`, the GI50 was 31.1 µM (inactive) in test [1]; 20.7 µM (inactive) in test [3]; 74.5 µM (inactive) in test [4]; 32.3 µM (inactive) in test [5]; 88.1 µM (inactive) in test [6]; 80.2 µM (inactive) in test [7]. Besides, the GI50 in test [8] was > 100 µM; in [9] it was > 100 µM (inactive); in test [20], 15.8 µM (inactive); in test [10] it was > 100 µM (inactive); in test [11], 47 µM (inactive); in test [12], 20.7 µM (inactive). For the same compound, the GI50 in test [19] is 30.6 µM (inactive); in test [13], 24.7 µM (inactive); in test [14], 52 µM (inactive); in [15] it was 45.8 µM (inactive); in test [16], 55.6 µM (inactive); in test [17] it was 46.8 µM (inactive). In addition, the GI50 in [18] was 23.3 µM (inactive).

Take `O=C1CCCCC/C1=C\c1ccc(F)cc1`: the GI50 is 95.5 µM (inactive) in test [1]; 86.1 µM (inactive) in test [2]; > 100 µM (inactive) in [3]; 74.1 µM (inactive) in test [4]; 40.3 µM (inactive) in test [5]; > 100 µM (inactive) in [6]. The GI50 in [8] was > 100 µM; in test [9], > 100 µM (inactive); in test [10], 67.3 µM (inactive); in test [11], > 100 µM (inactive); in test [12], 52.2 µM (inactive); in [19], > 100 µM (inactive). In addition, the GI50 in [13], in test [14], in [15], in test [16] and in test [17] was > 100 µM (inactive) in each case.
